The numbers were not newly measured in PMC2063170, “A phase I clinical and pharmacokinetic study of the new topoisomerase inhibitor GI147211 given as a 72-h continuous infusion” (British Journal of Cancer, 1998), which cites them from elsewhere.

On the set-up of this series: method as in Burris et al. 1994. The settings on record: ref Burris et al. 1994, cited from earlier work.

With `CC[C@@]1(O)C(=O)OCc2c1cc1n(c2=O)Cc2cc3c(CN(C)C)c(O)ccc3nc2-1` [topotecan], where the note is “continuous infusion for 3 days every 3 weeks”, the MTD is reported as 1.6 mg m-2 day-1. In addition, the “Css of lactone at MTD” value (plasma, 1.6 mg m-2 day-1 continuous infusion for 3 days every 3 weeks) was 5.5 ng/mL.
